In patent publication US20230293526A1, “METHOD FOR TREATING CANCER WITH A REVERSE TRANSCRIPTASE INHIBITOR” (PrimeFour Therapeutics, Inc., priority 2020, published 2023):

Tested on: cancer cell lines
Assay: Cancer cell proliferation activity of representative nucleosides, CellTiterGlo 72 h (Example 7, Tables 8 and 9)
Format: cell-based
Method: Dose response relationships on cell proliferation was assessed for representative nucleosides on cancer cell lines. Briefly, compound treatment of cells started one day after seeding with a final DMSO concentration of 0.1%, and was performed by nanodrop-dispensing using a Tecan Dispenser. 0.1% DMSO (solvent) and Staurosporine (10 μM) served as high control (100% viability) and low control (0% viability), respectively. Cells were cultured in the appropriate media. For the assays, cells were seeded in white cell culture-treated flat and clear bottom multiwell plates and incubated at 37° C. overnight before compound was added. After incubation for 72 h at 37° C. at 5% or 10% CO2 dependent on the medium, cell plates were equilibrated to room temperature for one hour, CellTiterGlo reagent (Promega) was added and luminescence was measured approximately an hour later using a luminometer.
Raw data were converted into percent cell viability relative to the high and low control, which were set to 100% and 0%, respectively.

SMILES: Cc1cn([C@H]2C[C@H](O)[C@@](C#N)(CO)O2)c(=O)[nH]c1=O [compound 31]
- IC50 (72 h, 5637, 72 h (Table 9)): > 50 µM
- IC50 (72 h, CLS439, 72 h (Table 9)): > 50 µM
- IC50 (72 h, HS729, 72 h (Table 9)): > 50 µM
- IC50 (72 h, J82, 72 h (Table 9)): 4.88 µM
- IC50 (72 h, JAR, 72 h (Table 9)): > 50 µM
- IC50 (72 h, MT3, 72 h (Table 9)): 3.77 µM
- IC50 (72 h, PC3, 72 h (Table 9)): > 50 µM
- IC50 (72 h, RD, 72 h (Table 9)): > 50 µM
- IC50 (72 h, T24, 72 h (Table 9)): 3.01 µM
- IC50 (Homo sapiens, 22Rv1, 72 h, 22RV1, 72 h (Table 9)): 1.06 µM
- IC50 (Homo sapiens, 786-0, 72 h, 786O, 72 h (Table 9)): > 50 µM
- IC50 (Homo sapiens, A204, 72 h, A204, 72 h (Table 9)): 2.55 µM
- IC50 (Homo sapiens, A549, 72 h, A549, 72 h (Table 9)): > 50 µM
- IC50 (Homo sapiens, A673, 72 h, A673, 72 h (Table 9)): 5.25 µM
- IC50 (Homo sapiens, A2780, 72 h, A2780, 72 h (Table 9)): > 50 µM
- IC50 (Homo sapiens, A-375, 72 h, A375, 72 h (Table 9)): > 50 µM
- IC50 (Homo sapiens, A-431, 72 h, A431, 72 h (Table 9)): 2.6 µM
- IC50 (Homo sapiens, ACHN, 72 h, 72 h (Table 9)): 4.02 µM
- IC50 (Homo sapiens, ASPC1, 72 h, ASPC1, 72 h (Table 9)): > 50 µM
- IC50 (Homo sapiens, BT-20, 72 h, BT20, 72 h (Table 9)): > 50 µM
- IC50 (Homo sapiens, BXPC-3, 72 h, BXPC3, 72 h (Table 9)): 6.34 µM
- IC50 (Homo sapiens, C-33-A, 72 h, C33A, 72 h (Table 9)): 1.75 µM
- IC50 (Homo sapiens, CAKI-1, 72 h, CAKI1, 72 h (Table 9)): > 50 µM
- IC50 (Homo sapiens, COLO 205, 72 h, COLO205, 72 h (Table 9)): > 50 µM
- IC50 (Homo sapiens, COLO-678, 72 h, COLO678, 72 h (Table 9)): > 50 µM
- IC50 (Homo sapiens, Ca-Ski, 72 h, CASKI, 72 h (Table 9)): > 50 µM
- IC50 (Homo sapiens, Caco-2, 72 h, CACO2, 72 h (Table 9)): > 50 µM
- IC50 (Homo sapiens, Calu-6, 72 h, CALU6, 72 h (Table 9)): > 50 µM
- IC50 (Homo sapiens, DLD-1, 72 h, DLD1, 72 h (Table 9)): 4.59 µM
- IC50 (Homo sapiens, DU-145, 72 h, DU145, 72 h (Table 9)): 5.46 µM
- IC50 (Homo sapiens, EFO-21, 72 h, EFO21, 72 h (Table 9)): > 50 µM
- IC50 (Homo sapiens, EJ-28, 72 h, EJ28, 72 h (Table 9)): > 50 µM
- IC50 (Homo sapiens, Granta-519, 72 h, GRANTA-519, 72 h (Table 9)): 3.15 µM
- IC50 (Homo sapiens, HCT-15, 72 h, HCT15, 72 h (Table 9)): > 50 µM
- IC50 (Homo sapiens, HCT-116, 72 h, HCT116, 72 h (Table 9)): > 50 µM
- IC50 (Homo sapiens, HEK293, 72 h, HEK293, 72 h (Table 9)): > 50 µM
- IC50 (Homo sapiens, HL-60, 72 h, HL-60, 72 h (Table 9)): > 50 µM
- IC50 (Homo sapiens, HT-29, 72 h, HT29, 72 h (Table 9)): > 50 µM
- IC50 (Homo sapiens, HT-1080, 72 h, HT1080, 72 h (Table 9)): > 50 µM
- IC50 (Homo sapiens, HeLa, 72 h, 72 h (Table 9)): > 50 µM
- IC50 (Homo sapiens, HepG2, 72 h, HEPG2, 72 h (Table 9)): 5.08 µM
- IC50 (Homo sapiens, Hs-578T, 72 h, HS578T, 72 h (Table 9)): > 50 µM
- IC50 (Homo sapiens, IGROV-1, 72 h, IGROV1, 72 h (Table 9)): > 50 µM
- IC50 (Homo sapiens, IMR-90, 72 h, IMR90, 72 h (Table 9)): > 50 µM
- IC50 (Homo sapiens, JEG-3, 72 h, JEG3, 72 h (Table 9)): > 50 µM
- IC50 (Homo sapiens, JIMT-1, 72 h, JIMT1, 72 h (Table 9)): > 50 µM
- IC50 (Homo sapiens, K562, 72 h, K-562, 72 h (Table 9)): > 50 µM
- IC50 (Homo sapiens, Kasumi 1, 72 h, KASUMI-1, 72 h (Table 9)): > 50 µM
- IC50 (Homo sapiens, L-363, 72 h, L-363, 72 h (Table 9)): > 50 µM
- IC50 (Homo sapiens, LoVo, 72 h, 72 h (Table 9)): 3.55 µM
- IC50 (Homo sapiens, MCF7, 72 h, MCF7, 72 h (Table 9)): > 50 µM
- IC50 (Homo sapiens, MDA-MB-231, 72 h, MDAMB231, 72 h (Table 9)): > 50 µM
- IC50 (Homo sapiens, MDA-MB-435, 72 h, MDAMB435, 72 h (Table 9)): > 50 µM
- IC50 (Homo sapiens, MDA-MB-436, 72 h, MDAMB436, 72 h (Table 9)): 5.24 µM
- IC50 (Homo sapiens, MDA-MB-468, 72 h, MDAMB468, 72 h (Table 9)): > 50 µM
- IC50 (Homo sapiens, MG-63, 72 h, MG63, 72 h (Table 9)): > 50 µM
- IC50 (Homo sapiens, MHH-ES-1, 72 h, MHHES1, 72 h (Table 9)): 3.07 µM
- IC50 (Homo sapiens, MIA PaCa-2, 72 h, MIAPACA2, 72 h (Table 9)): > 50 µM
- IC50 (Homo sapiens, MINO, 72 h, 72 h (Table 9)): 3.91 µM
- IC50 (Homo sapiens, MV4-11, 72 h, MV4-11, 72 h (Table 9)): 0.38 µM
- IC50 (Homo sapiens, NCI-H23, 72 h, NCI-H23, 72 h (Table 9)): 4.05 µM
- IC50 (Homo sapiens, NCI-H82, 72 h, NCIH82, 72 h (Table 9)): 5.25 µM
- IC50 (Homo sapiens, NCI-H292, 72 h, NCIH292, 72 h (Table 9)): > 50 µM
- IC50 (Homo sapiens, NCI-H460, 72 h, NCIH460, 72 h (Table 9)): 2.8 µM
- IC50 (Homo sapiens, OVCAR-3, 72 h, OVCAR3, 72 h (Table 9)): > 50 µM
- IC50 (Homo sapiens, OVCAR-4, 72 h, OVCAR4, 72 h (Table 9)): > 50 µM
- IC50 (Homo sapiens, PANC-1, 72 h, PANC1, 72 h (Table 9)): > 50 µM
- IC50 (Homo sapiens, PLC-PRF-5, 72 h, PLCPRF5, 72 h (Table 9)): 5.05 µM
- IC50 (Homo sapiens, Panc1005, 72 h, PANC1005, 72 h (Table 9)): > 50 µM
- IC50 (Homo sapiens, Ramos, 72 h, 72 h (Table 9)): > 50 µM
- IC50 (Homo sapiens, SAOS-2, 72 h, SAOS2, 72 h (Table 9)): > 50 µM
- IC50 (Homo sapiens, SF-268, 72 h, SF268, 72 h (Table 9)): 14.6 µM
- IC50 (Homo sapiens, SF-295, 72 h, SF295, 72 h (Table 9)): > 50 µM
- IC50 (Homo sapiens, SK-BR-3, 72 h, SKBR3, 72 h (Table 9)): 3.44 µM
- IC50 (Homo sapiens, SK-HEP1, 72 h, SKHEP1, 72 h (Table 9)): 3.15 µM
- IC50 (Homo sapiens, SK-LMS-1, 72 h, SKLMS1, 72 h (Table 9)): 2.88 µM
- IC50 (Homo sapiens, SK-MEL-5, 72 h, SKMEL5, 72 h (Table 9)): > 50 µM
- IC50 (Homo sapiens, SK-MEL-28, 72 h, SKMEL28, 72 h (Table 9)): > 50 µM
- IC50 (Homo sapiens, SK-N-AS, 72 h, SKNAS, 72 h (Table 9)): > 50 µM
- IC50 (Homo sapiens, SK-N-SH, 72 h, SKNSH, 72 h (Table 9)): > 50 µM
- IC50 (Homo sapiens, SK-OV-3, 72 h, SKOV3, 72 h (Table 9)): > 50 µM
- IC50 (Homo sapiens, SNB-75, 72 h, SNB75, 72 h (Table 9)): 4.52 µM
- IC50 (Homo sapiens, SU-DHL10, 72 h, SU-DHL-10, 72 h (Table 9)): > 50 µM
- IC50 (Homo sapiens, SU-DHL-6, 72 h, SU-DHL-6, 72 h (Table 9)): 3.92 µM
- IC50 (Homo sapiens, SW-620, 72 h, SW620, 72 h (Table 9)): > 50 µM
- IC50 (Homo sapiens, TE-671, 72 h, TE671, 72 h (Table 9)): > 50 µM
- IC50 (Homo sapiens, THP-1, 72 h, THP-1, 72 h (Table 9)): 2.49 µM
- IC50 (Homo sapiens, U2OS, 72 h, 72 h (Table 9)): > 50 µM
- IC50 (Homo sapiens, U-87 MG, 72 h, U87MG, 72 h (Table 9)): 5.23 µM
- IC50 (Homo sapiens, UMUC3, 72 h, UMUC3, 72 h (Table 9)): > 50 µM
- IC50 (Homo sapiens, UO-31, 72 h, UO31, 72 h (Table 9)): > 50 µM
- IC50 (Homo sapiens, WSU-NHL, 72 h, 72 h (Table 9)): 4.26 µM
- IC50 (NCI-H358M, 72 h, NCIH358M, 72 h (Table 9)): > 50 µM
- IC50 (PBMC, 72 h, 72 h (Table 9)): > 50 µM
- IC50 (RD-ES, 72 h, RDES, 72 h (Table 9)): 3.65 µM
